{"source": "paper PMC6264390", "about": "“Design, Synthesis and Structure-activity Studies of Rhodanine Derivatives as HIV-1 Integrase Inhibitors” (Molecules, 2010)", "key": {"[1]": {"test_system": "HT 29 colon cancer cell line", "experiment": "MTT cytotoxicity assay, HT 29", "assay_type": "cell-based", "details": "Homo sapiens, 72 h", "from_the_text": "(§1) Human melanoma cell line MDA-MB 435, pancreatic cancer cell line Panc-1, and colon cancer cell line HT 29 were purchased from the American Type Cell Culture (Manassas, VA, USA). HCT 116 p53^+/+ and HCT 116 p53^−/^− were kindly provided by Dr. Bert Vogelstein, Johns Hopkins Medical Institutions (Baltimore, MD, USA). HCT 116 p53^+/+, HCT116 p53^−/^−, and HT 29 cells were maintained as monolayer cultures in RPMI 1640 supplemented with 10% fetal bovine serum (FBS; Gemini-Bioproducts, Woodland, CA, USA) and 2 mmol/L L-glutamine at 37 °C in a humidified atmosphere of 5% CO2. Similarly, MDA-MB 435 and Panc-1 cells were maintained in Dulbecco’s modified Eagle’s medium (DMEM) supplemented with 10% fetal bovine serum as described above. […]\n(§2) Cytotoxicity was assessed by 3-(4,5-dimethylthiazol-2-yl)-2,5-diphenyltetrazolium bromide (MTT) assay as previously described. […]\n(§3) After 72 h exposure to the test compounds, MTT solution (5 mg/mL; 20 μL) was added to each well and cells were incubated for 4 h at 37 °C. […] The absorbance intensity was measured at 570 nm against appropriate blank controls using a microplate reader (Molecular Devices, Sunnyvale, CA, USA). […]"}, "[2]": {"target": "T1, human apurinic/apyrimidinic endonuclease 1 (APE1) (Homo sapiens, UniProt P27695)", "T1 construct": "His; made in house", "T1 sequence (P27695 whole entry)": "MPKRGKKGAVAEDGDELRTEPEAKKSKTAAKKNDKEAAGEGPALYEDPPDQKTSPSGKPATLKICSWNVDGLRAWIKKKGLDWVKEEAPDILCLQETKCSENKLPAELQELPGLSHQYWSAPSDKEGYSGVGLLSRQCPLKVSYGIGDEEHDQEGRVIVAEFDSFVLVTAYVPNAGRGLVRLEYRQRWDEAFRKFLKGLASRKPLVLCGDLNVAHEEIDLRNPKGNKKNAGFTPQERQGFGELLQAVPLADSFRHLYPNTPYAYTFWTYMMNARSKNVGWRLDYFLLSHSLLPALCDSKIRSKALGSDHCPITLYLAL", "experiment": "APE1 inhibition assay", "assay_type": "biochemical", "details": "read-out: Inhibition of APE1 catalytic activity IC50", "procedure,_shortened": "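His-tagged APE1 (0.05 nM) preincubated with compound 10 min at 30 °C in MOPS pH 7.2 buffer with 7.5 mM MnCl2 and 10% DMSO, then 200 nM 5′-32P-labelled abasic (THF) duplex added for 10 min. Incision products resolved on denaturing gel, phosphorimaged; IC50 from %I versus log concentration.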"}, "[3]": {"test_system": "MDA-MB 435 melanoma cell line", "experiment": "MTT cytotoxicity assay, MDA-MB 435", "assay_type": "cell-based", "details": "Homo sapiens, 72 h, read-out: GI50, MDA-MD435", "from_the_text": "as §1, §2, §3"}}}
{"smiles": "COc1ccc(NC(=O)C(=S)NN2C(=O)C(=Cc3ccc([N+](=O)[O-])o3)SC2=S)cc1", "note": "[Compound 17, N-(4-methoxyphenyl)-2-{5-[(5-nitro-2-furyl)methylene]-4-oxo-2-thioxo-1,3-thiazolidin-3-yl}amino-2-thioxoacetamide]", "values": [{"measurement": "GI50", "setting": "[1]", "result": 9.6, "unit": "µM"}, {"measurement": "IC50", "setting": "[2]", "result": "> 100", "unit": "µM"}, {"measurement": "GI50", "setting": "[3]", "result": "9 ± 1.1", "unit": "µM"}]}
{"smiles": "O=C(Nc1ccc(Cl)cc1)C(=S)NN1C(=O)C(=Cc2ccc([N+](=O)[O-])o2)SC1=S", "note": "[Compound 13, N-(4-chlorophenyl)-2-{5-[(5-nitro-2-furyl)methylene]-4-oxo-2-thioxo-1,3-thiazolidin-3-yl}amino-2-thioxoacetamide]", "values": [{"measurement": "GI50", "setting": "[1]", "result": "> 10", "unit": "µM"}, {"measurement": "IC50", "setting": "[2]", "result": 93, "unit": "µM"}, {"measurement": "GI50", "setting": "[3]", "result": "13.5 ± 5.2", "unit": "µM"}]}
